# Target: ATX (human His-tagged) (Homo sapiens (Human), UniProt Q13822)
# Test: Human ATX enzyme inhibition assay (fluorescence quenching, MR121 substrate)
# Type: biochemical
# Conditions: inhibitory activity against ATX; 30 nM ATX, 1 μM MR121 substrate, 30° C.
# Description: Human ATX Enzyme Inhibition Assay
# ATX inhibition was measured by a fluorescence quenching assay using a specifically labeled substrate analogue (MR121 substrate). To obtain this MR121 substrate, BOC and TBS protected 6-amino-hexanoic acid (R)-3-({2-[3-(2-{2-[2-(2-amino-ethoxy)-ethoxy]-ethoxy}-ethoxy)-propionylamino]-ethoxy}-hydroxy-phosphoryloxy)-2-hydroxy-propyl ester (Ferguson et al., Org Lett 2006, 8 (10), 2023) was labeled with MR121 fluorophore (CAS 185308-24-1, 1-(3-carboxypropyl)-11-ethyl-1,2,3,4,8,9,10,11-octahydro-dipyrido[3,2-b:2′,3′-i]phenoxazin-13-ium) on the free amine of the ethanolamine side and then, after deprotection, subsequently with tryptophan on the side of the aminohexanoic acid.
# Assay working solutions were made as follows:
# Assay buffer (50 mM Tris-HCl, 140 mM NaCl, 5 mM KCl, 1 mM CaCl2, 1 mM MgCl2, 0.01% Triton-X-100, pH 8.0;
# ATX solution: ATX (human His-tagged) stock solution (1.08 mg/mL in 20 mM bicine, pH 8.5, 0.15 M NaCl, 10% glycerol, 0.3% CHAPS, 0.02% NaN3), diluted to 1.4-2.5× final concentration in assay buffer;
# MR121 substrate solution: MR121 substrate stock solution (800 μM MR121 substrate in DMSO), diluted to 2-5× final concentration in assay buffer.
# Test compounds (10 mM stock in DMSO, 8 μL) were obtained in 384 well sample plates (Corning Costar #3655) and diluted with 8 μL DMSO. Row-wise serial dilutions were made by transferring 8 μL cpd solution to the next row up to […]. The compound and control solutions were mixed five times and 2 μL were transferred to 384 well assay plates (Corning Costar #3702). Then, 15 μL of 41.7 nM ATX solution was added (30 nM final concentration), mixed five times and then incubated for 15 minutes at 30° C. 10 μL of MR121 substrate solution was added (1 μM final concentration), mixed 30 times and then incubated for 15 minutes at 30° C. Fluorescence was then measured every 2 minutes for 1 hour (Perkin Elmer plate: vision multimode reader); light intensity: 2.5%; exp. time: 1.4 sec, Filter: Fluo_630/690 nm) and IC50 values were calculated from these readouts.
row,IC50,Structure (SMILES)
1,6 nM,"O=C(CCc1ccc(OC(F)(F)F)cc1)N1CCc2nc(C(=O)N3CCc4[nH]nnc4C3)nn2CC1 [Example 20, 1-[2-(1,4,6,7-tetrahydrotriazolo[4,5-c]pyridine-5-carbonyl)-5,6,8,9-tetrahydro-[1,2,4]triazolo[1,5-d][1,4]diazepin-7-yl]-3-[4-(trifluoromethoxy)phenyl]propan-1-one]"
2,6 nM,"O=C(OCc1ccc(OC(F)(F)F)c(Cl)c1)N1CCc2nc(C(=O)N3CCc4[nH]nnc4C3)nn2CC1 [Example 41, [3-chloro-4-(trifluoromethoxy)phenyl]methyl 2-(1,4,6,7-tetrahydrotriazolo[4,5-c]pyridine-5-carbonyl)-5,6,8,9-tetrahydro-[1,2,4]triazolo[1,5-d][1,4]diazepine-7-carboxylate]"
3,30 nM,"COc1ccc(COC(=O)N2CCc3cc(C(=O)N4CCc5[nH]nnc5C4)nn3CC2)cc1F [Example 32, 3-fluoro-4-methoxybenzyl 2-(4,5,6,7-tetrahydro-1H-[1,2,3]triazolo[4,5-c]pyridine-5-carbonyl)-7,8-dihydro-4H-pyrazolo[1,5-d][1,4]diazepine-6(5H)-carboxylate]"
4,17 nM,"O=C(OCc1ccc(OC(F)(F)F)cc1)N1CCc2nc(C(=O)N3CCc4[nH]nnc4C3)cn2CC1 [Example 13, [4-(Trifluoromethoxy)phenyl]methyl 2-(1,4,6,7-tetrahydrotriazolo[4,5-c]pyridine-5-carbonyl)-5,6,8,9-tetrahydroimidazo[1,2-d][1,4]diazepine-7-carboxylate]"
5,17 nM,"O=C(OCc1ccc(OCC(F)(F)F)cc1)N1CCc2cc(C(=O)N3CCc4[nH]nnc4C3)nn2CC1 [Example 40, 4-(2,2,2-trifluoroethoxy)benzyl 2-(4,5,6,7-tetrahydro-1H-[1,2,3]triazolo[4,5-c]pyridine-5-carbonyl)-7,8-dihydro-4H-pyrazolo[1,5-d][1,4]diazepine-6(5H)-carboxylate]"
6,70 nM,"N#Cc1ccc(COC(=O)N2CCc3cc(C(=O)N4CCc5[nH]nnc5C4)nn3CC2)cc1F [Example 7, 4-Cyano-3-fluorobenzyl 2-(4,5,6,7-tetrahydro-1H-[1,2,3]triazolo[4,5-c]pyridine-5-carbonyl)-7,8-dihydro-4H-pyrazolo[1,5-d][1,4]diazepine-6(5H)-carboxylate]"
7,7 nM,"O=C(OCc1ccc(OC(F)(F)F)c(Cl)c1)N1CCc2nc(C(=O)N3CCc4[nH]nnc4C3)cn2CC1 [Example 42, [3-chloro-4-(trifluoromethoxy)phenyl]methyl 2-(1,4,6,7-tetrahydrotriazolo[4,5-c]pyridine-5-carbonyl)-5,6,8,9-tetrahydroimidazo[1,2-d][1,4]diazepine-7-carboxylate]"
8,15 nM,"O=C(OCc1ccc(OC(F)(F)F)cc1)N1CCc2nc(C(=O)N3CCc4[nH]nnc4C3)nn2CC1 [Example 11, [4-(Trifluoromethoxy)phenyl]methyl 2-(1,4,6,7-tetrahydrotriazolo[4,5-c]pyridine-5-carbonyl)-5,6,8,9-tetrahydro-[1,2,4]triazolo[1,5-d][1,4]diazepine-7-carboxylate]"
9,14 nM,"Cc1cc(OC(F)(F)F)ccc1COC(=O)N1CCc2cc(C(=O)N3CCc4[nH]nnc4C3)nn2CC1 [Example 39, 2-methyl-4-(trifluoromethoxy)benzyl 2-(4,5,6,7-tetrahydro-1H-[1,2,3]triazolo[4,5-c]pyridine-5-carbonyl)-7,8-dihydro-4H-pyrazolo[1,5-d][1,4]diazepine-6(5H)-carboxylate]"
10,17 nM,"O=C(CCc1ccc(OC(F)(F)F)c(F)c1)N1CCc2nc(C(=O)N3CCc4[nH]nnc4C3)nn2CC1 [Example 21, 3-[3-fluoro-4-(trifluoromethoxy)phenyl]-1-[2-(1,4,6,7-tetrahydrotriazolo[4,5-c]pyridine-5-carbonyl)-5,6,8,9-tetrahydro-[1,2,4]triazolo[1,5-d][1,4]diazepin-7-yl]propan-1-one]"
